According to ChEMBL document CHEMBL1201862, “PubChem BioAssay data set” (2004):
The source made the active and inactive calls.

Key:
[1] = target: ORF 73 (Human herpesvirus 8, UniProt O40947); experiment: KSHV LANA DNA-binding disruption – biochemical, fluorescence polarization, cherry-picked samples, dose response (AID 504725); set-up: species or system Human gammaherpesvirus 8;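 note: fluorescence polarization of a labeled DNA duplex reporting LANA DNA binding; potency is for inhibitors that block LANA binding to the DNA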
Chain of ORF 73 (O40947 whole entry): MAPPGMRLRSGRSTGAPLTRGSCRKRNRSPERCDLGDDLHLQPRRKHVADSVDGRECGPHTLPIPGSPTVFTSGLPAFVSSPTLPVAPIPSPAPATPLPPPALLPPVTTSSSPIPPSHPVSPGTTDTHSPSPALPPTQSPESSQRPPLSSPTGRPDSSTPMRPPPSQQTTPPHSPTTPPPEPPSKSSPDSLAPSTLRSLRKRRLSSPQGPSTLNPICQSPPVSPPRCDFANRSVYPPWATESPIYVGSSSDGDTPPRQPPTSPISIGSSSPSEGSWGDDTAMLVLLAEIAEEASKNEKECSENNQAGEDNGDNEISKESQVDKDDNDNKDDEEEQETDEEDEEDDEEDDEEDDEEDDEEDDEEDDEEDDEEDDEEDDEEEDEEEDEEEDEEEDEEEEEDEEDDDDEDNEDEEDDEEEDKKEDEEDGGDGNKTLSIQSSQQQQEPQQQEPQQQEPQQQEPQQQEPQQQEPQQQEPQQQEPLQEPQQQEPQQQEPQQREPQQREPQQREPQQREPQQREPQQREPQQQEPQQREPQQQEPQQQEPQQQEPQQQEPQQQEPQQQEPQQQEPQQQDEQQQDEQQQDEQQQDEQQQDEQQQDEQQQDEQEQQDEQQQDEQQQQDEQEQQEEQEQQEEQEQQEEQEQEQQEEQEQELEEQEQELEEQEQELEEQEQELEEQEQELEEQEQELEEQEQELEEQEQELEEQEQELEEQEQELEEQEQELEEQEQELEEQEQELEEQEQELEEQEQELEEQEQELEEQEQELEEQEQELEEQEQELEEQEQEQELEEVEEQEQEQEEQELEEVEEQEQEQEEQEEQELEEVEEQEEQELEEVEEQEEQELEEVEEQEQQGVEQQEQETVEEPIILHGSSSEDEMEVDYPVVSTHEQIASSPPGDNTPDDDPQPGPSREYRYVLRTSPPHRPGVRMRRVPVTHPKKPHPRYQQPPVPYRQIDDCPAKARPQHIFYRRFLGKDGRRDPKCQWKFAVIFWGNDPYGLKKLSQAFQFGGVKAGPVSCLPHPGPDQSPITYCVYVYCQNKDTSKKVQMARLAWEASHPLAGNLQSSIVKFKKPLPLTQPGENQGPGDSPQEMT

[2] = target: T1, Exodeoxyribonuclease V (Escherichia coli (strain K12), UniProt P04993+P07648+P08394); experiment: RecBCD inhibition via phage-restricted bacterial growth – absorbance, V66 E. coli, mutant T4 phage, counter-screen for AddAB inhibitor project, dose response (AID 492957); format: functional, cell-based, Escherichia coli str. K-12 substr. MG1655
T1 sequence (P04993 whole entry): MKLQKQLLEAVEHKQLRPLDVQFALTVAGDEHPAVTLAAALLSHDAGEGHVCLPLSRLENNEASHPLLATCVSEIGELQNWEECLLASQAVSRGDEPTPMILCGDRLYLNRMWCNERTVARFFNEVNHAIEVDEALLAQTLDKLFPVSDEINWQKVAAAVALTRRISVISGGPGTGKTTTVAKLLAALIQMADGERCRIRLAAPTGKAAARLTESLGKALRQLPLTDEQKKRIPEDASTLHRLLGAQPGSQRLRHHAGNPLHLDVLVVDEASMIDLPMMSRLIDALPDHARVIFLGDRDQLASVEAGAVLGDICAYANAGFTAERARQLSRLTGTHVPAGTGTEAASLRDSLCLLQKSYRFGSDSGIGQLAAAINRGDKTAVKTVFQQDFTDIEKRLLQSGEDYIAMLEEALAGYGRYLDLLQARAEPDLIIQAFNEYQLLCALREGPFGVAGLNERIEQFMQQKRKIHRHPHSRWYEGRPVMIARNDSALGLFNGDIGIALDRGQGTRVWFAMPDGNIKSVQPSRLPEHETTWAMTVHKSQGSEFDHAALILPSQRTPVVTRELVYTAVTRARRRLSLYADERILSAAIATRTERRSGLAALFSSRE
T1 sequence (P07648 whole entry): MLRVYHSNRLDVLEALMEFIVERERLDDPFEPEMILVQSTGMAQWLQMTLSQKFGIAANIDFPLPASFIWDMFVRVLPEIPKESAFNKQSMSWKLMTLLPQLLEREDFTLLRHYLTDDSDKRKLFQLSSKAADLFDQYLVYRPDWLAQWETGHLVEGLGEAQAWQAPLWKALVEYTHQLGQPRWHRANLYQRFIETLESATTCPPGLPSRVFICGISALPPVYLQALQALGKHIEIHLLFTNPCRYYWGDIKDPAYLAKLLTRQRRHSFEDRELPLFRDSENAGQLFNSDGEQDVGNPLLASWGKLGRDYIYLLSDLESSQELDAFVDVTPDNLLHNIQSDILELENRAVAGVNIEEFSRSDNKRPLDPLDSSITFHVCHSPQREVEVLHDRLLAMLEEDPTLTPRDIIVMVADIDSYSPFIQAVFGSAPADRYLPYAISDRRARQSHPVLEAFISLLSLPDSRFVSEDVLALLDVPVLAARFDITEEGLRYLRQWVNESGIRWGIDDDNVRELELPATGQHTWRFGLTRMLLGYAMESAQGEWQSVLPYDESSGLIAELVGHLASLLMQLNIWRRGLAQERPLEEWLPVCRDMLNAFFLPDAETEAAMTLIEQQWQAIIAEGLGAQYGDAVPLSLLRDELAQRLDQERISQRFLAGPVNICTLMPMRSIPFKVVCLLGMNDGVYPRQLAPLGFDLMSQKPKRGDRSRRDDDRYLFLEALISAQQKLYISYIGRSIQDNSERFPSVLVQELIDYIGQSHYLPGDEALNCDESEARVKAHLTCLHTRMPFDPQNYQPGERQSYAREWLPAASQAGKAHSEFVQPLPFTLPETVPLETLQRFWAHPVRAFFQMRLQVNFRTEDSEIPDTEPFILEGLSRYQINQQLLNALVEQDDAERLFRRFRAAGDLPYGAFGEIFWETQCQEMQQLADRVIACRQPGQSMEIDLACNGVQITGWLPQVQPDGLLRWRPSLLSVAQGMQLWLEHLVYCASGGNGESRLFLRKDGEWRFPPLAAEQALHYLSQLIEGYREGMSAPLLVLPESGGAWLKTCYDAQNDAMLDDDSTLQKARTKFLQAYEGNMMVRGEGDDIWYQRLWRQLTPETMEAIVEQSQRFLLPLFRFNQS
T1 sequence (P08394 whole entry): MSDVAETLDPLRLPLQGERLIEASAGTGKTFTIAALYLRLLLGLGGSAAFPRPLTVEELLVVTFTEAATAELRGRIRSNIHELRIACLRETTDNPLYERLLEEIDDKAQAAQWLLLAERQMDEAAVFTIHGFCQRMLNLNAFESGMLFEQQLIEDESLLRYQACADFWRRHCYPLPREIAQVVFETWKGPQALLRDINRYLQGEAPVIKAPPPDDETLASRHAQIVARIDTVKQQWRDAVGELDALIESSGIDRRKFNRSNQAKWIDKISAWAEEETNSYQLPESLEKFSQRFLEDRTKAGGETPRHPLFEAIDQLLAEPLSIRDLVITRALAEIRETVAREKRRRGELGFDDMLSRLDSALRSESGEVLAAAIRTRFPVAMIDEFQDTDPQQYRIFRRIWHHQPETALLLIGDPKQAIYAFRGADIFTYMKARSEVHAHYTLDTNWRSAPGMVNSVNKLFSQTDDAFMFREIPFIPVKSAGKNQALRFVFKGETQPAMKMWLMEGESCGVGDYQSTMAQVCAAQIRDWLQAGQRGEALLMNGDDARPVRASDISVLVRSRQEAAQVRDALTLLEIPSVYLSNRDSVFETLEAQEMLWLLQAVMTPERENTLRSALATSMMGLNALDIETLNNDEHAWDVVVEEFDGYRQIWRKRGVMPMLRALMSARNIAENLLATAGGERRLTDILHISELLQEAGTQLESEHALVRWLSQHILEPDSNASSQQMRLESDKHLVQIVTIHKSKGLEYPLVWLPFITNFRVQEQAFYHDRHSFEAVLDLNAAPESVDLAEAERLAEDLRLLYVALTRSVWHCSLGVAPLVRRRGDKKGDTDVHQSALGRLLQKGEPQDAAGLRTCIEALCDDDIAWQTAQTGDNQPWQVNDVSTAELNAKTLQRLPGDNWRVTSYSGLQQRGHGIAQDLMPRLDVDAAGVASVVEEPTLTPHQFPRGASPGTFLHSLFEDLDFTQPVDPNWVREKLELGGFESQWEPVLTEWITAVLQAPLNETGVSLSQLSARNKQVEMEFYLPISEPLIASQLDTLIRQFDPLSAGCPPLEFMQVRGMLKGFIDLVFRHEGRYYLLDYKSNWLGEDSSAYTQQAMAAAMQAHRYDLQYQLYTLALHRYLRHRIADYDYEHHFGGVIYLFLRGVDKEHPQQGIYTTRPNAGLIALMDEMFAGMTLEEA

[3] = system: Streptococcus; experiment: GAS UMAA2166 growth inhibition – luminescence, BacTiterGlo, counter-screen for streptokinase expression inhibitor project, dose response (AID 1915); format: functional, organism-based;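 note: potency for reduction of bacterial viability or growth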
[4] = target: Cytochrome P450 2C9 (Homo sapiens, UniProt P11712)
Chain of Cytochrome P450 2C9 (P11712 whole entry): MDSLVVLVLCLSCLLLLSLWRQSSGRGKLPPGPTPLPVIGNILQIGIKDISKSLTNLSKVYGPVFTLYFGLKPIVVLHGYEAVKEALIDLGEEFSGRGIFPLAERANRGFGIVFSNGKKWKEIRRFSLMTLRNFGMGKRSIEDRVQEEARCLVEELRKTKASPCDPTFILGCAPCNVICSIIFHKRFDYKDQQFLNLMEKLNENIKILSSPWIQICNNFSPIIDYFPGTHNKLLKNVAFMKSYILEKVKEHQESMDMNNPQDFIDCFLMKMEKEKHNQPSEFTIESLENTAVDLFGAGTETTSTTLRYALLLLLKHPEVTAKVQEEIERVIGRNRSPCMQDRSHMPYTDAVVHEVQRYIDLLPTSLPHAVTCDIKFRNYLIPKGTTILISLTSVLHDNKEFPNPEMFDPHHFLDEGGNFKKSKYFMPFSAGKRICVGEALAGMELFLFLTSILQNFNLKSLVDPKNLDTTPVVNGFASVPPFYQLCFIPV

COc1ccc(NS(=O)(=O)c2ccc3c(c2)[C@H]2C=CC[C@H]2[C@@H](c2ccc(C(=O)O)cc2)N3)cc1
AC50 [1]: 71.9 µM (active)

CCC(=O)NC(c1ccc(OC)cc1)c1cc(Cl)c2cccnc2c1O (centres undefined)
IC50 [2]: > 119 µM (inactive)

CCCCCCCCCCn1c2c(c(=N)c3c1CCC3)CCC2
EC50 [3]: 8.86 µM (active)
AC50 [4]: 20 µM (inconclusive)
